Tests used:
[1] = tested on: control sera (pooled serum of ten healthy LUMC hospital workers; commercial negative donor pooled serum from the Dutch bloodbank); assay type: binding, human; design: Binding of Control serum LUMC to linear peptides / Binding of Control serum Blood-bank to linear peptides / Binding of Control serum LUMC to looped peptides / Binding of Control Serum Blood-Bank to Looped peptides / Binding of Control serum LUMC to linear peptides of the protein M of SARS-CoV Urbani / Binding of Control serum Blood-bank to linear peptides of the protein M of SARS-CoV Urbani / Binding of Control serum LUMC to looped peptides of the protein M of SARS-CoV Urbani / Binding of Control Serum Blood-Bank to Looped peptides of the protein M of SARS-CoV Urbani: unit not given here
[2] = tested on: antibodies in sera from SARS patients (sera 1a, 1b, 2, 6, 37, 62, London, SARS-yellow, SARS-green); assay type: binding, human; design: Binding of serum 6 to linear peptides of protein X1 of SARS-CoV Urbani / Binding of serum 37 to linear peptides of protein X1 of SARS-CoV Urbani / Binding of serum 6 to looped/cyclic peptide (PEPSCAN-ELISA) / Binding of serum 37 to looped/cyclic peptide (PEPSCAN-ELISA) / Binding of serum 37 to looped/cyclic peptides of protein X1 of SARS-CoV Urbani / Binding of serum 6 to linear peptides of protein X2 / Binding of serum 37 to linear peptides of protein X2 / Binding of serum 37 to looped/cyclic peptides of protein X2 of SARS-CoV Urbani / Binding of serum 6 to linear peptides of protein M of SARS-CoV Urbani / Binding of serum 37 to linear peptides of protein M of SARS-CoV Urbani / Binding of serum 6 to looped/cyclic peptides of protein M of SARS-CoV Urbani / Binding of serum 37 to looped/cyclic peptides of protein M of SARS-CoV Urbani / Binding of serum 6 to linear peptides of protein X3 of SARS-CoV Urbani / Binding of serum 37 to linear peptides of protein X3 of SARS-CoV Urbani / Binding of serum 37 to looped/cyclic peptides of protein X3 of SARS-CoV Urbani / Binding of serum 6 to linear peptides of protein X4 of SARS-CoV Urbani / Binding of serum 37 to linear peptides of protein X4 of SARS-CoV Urbani / Binding of serum 37 to looped/cyclic peptides of protein X4 of SARS-CoV Urbani / Binding of serum 6 to linear peptides of protein X5 of SARS-CoV Urbani / Binding of serum 37 to linear peptides of protein X5 of SARS-CoV Urbani / Binding of serum 37 to looped/cyclic peptides of protein X5 of SARS-CoV Urbani / Binding of serum 6 to linear peptides of protein N of SARS-CoV Urbani / Binding of serum 37 to linear peptides of protein N of SARS-CoV Urbani / Binding of serum 6 to linear peptide (PEPSCAN-ELISA) / Binding of serum 1a to looped/cyclic peptides of protein N of SARS-CoV Urbani / Binding of serum 1b to looped/cyclic peptides of protein N of SARS-CoV Urbani / Binding of serum 2 to looped/cyclic peptides of protein N of SARS-CoV Urbani / Binding of serum 6 to looped/cyclic peptides of protein N of SARS-CoV Urbani / Binding of serum 37 to looped/cyclic peptides of protein N of SARS-CoV Urbani / Binding of serum 62 to looped/cyclic peptides of protein N of SARS-CoV Urbani / Binding of serum London to looped/cyclic peptides of protein N of SARS-CoV Urbani / Binding of serum SARS-green to looped/cyclic peptides of protein N of SARS-CoV Urbani: unit not given here
[3] = tested on: rabbit serum obtained by immunizing a rabbit with the SARS-CoV strain Frankfurt 1; assay type: binding; design: Binding of a rabbit serum to linear peptides / Binding of a rabbit serum to looped peptides / Rabbit serum linear peptides / Rabbit serum looped peptides / Binding of a rabbit serum to linear peptides of protein N of SARS-CoV Urbani (Rabbit serum linear peptides) / Binding of a rabbit serum to looped/cyclic peptides of protein N of SARS-CoV Urbani (Rabbit serum looped peptides): unit not given here

Question: IENATFFIFNKLVKD was tested. Which “Binding of Control Serum Blood-Bank to Looped peptides” value [1] did it give?
Answer: The value was 0.5.

Question: And the “Binding of Control serum Blood-bank to linear peptides” value [1]?
Answer: The value was 0.4.

Question: And the “Binding of Control serum LUMC to linear peptides” value [1]?
Answer: Its value is 0.3.

Question: What about the “Binding of Control serum LUMC to looped peptides” value [1] of the same sequence?
Answer: Its value is 0.5.

Question: And the “Binding of serum 1a to linear peptides of protein X1 of SARS-CoV Urbani” value [2]?
Answer: The value was 0.6.

Question: What about the “Binding of serum 1a to looped/cyclic peptides of protein X1 of SARS-CoV Urbani” value [2] of the same sequence?
Answer: The value was 0.5.

Question: What about the “Binding of serum 1b to linear peptides of protein X1 of SARS-CoV Urbani” value [2] of the same sequence?
Answer: Its value is 0.5.

Question: And the “Binding of serum 1b to looped/cyclic peptides of protein X1 of SARS-CoV Urbani” value [2]?
Answer: The value was 0.4.

Question: What about the “Binding of serum 2 to linear peptides of protein X1 of SARS-CoV Urbani” value [2] of the same sequence?
Answer: Its value is 0.5.

Question: And the “Binding of serum 2 to looped/cyclic peptides of protein X1 of SARS-CoV Urbani” value [2]?
Answer: The value was 0.4.

Question: And the “Binding of serum 6 to linear peptides of protein X1 of SARS-CoV Urbani” value [2]?
Answer: Its value is 0.3.

Question: What about the “Binding of serum 6 to looped/cyclic peptides of protein X1 of SARS-CoV Urbani” value [2] of the same sequence?
Answer: Its value is 0.2.

Question: And the “Binding of serum 37 to linear peptides of protein X1 of SARS-CoV Urbani” value [2]?
Answer: Its value is 0.5.

Question: What about the “Binding of serum 37 to looped/cyclic peptides of protein X1 of SARS-CoV Urbani” value [2] of the same sequence?
Answer: The value was 0.5.

Question: What about the “Binding of serum 62 to linear peptides of protein X1 of SARS-CoV Urbani” value [2] of the same sequence?
Answer: The value was 0.5.

Question: And the “Binding of serum 62 to looped/cyclic peptides of protein X1 of SARS-CoV Urbani” value [2]?
Answer: The value was 0.5.

Question: What about the “Binding of serum London to linear peptides of protein X1 of SARS-CoV Urbani” value [2] of the same sequence?
Answer: Its value is 0.2.

Question: What about the “Binding of serum London to looped/cyclic peptides of protein X1 of SARS-CoV Urbani” value [2] of the same sequence?
Answer: The value was 0.2.

Question: And the “Binding of serum SARS-green to linear peptides of protein X1 of SARS-CoV Urbani” value [2]?
Answer: The value was 0.2.

Question: And the “Binding of serum SARS-green to looped/cyclic peptides of protein X1 of SARS-CoV Urbani” value [2]?
Answer: The value was 0.1.

Question: And the “Binding of serum SARS-yellow to linear peptides of protein X1 of SARS-CoV Urbani” value [2]?
Answer: Its value is 0.4.

Question: And the “Binding of serum SARS-yellow to looped/cyclic peptides of protein X1 of SARS-CoV Urbani” value [2]?
Answer: The value was 0.3.

Question: And the “Binding of a rabbit serum to linear peptides” value [3]?
Answer: Its value is 0.1.

Question: What about the “Binding of a rabbit serum to looped peptides” value [3] of the same sequence?
Answer: The value was 0.5.

Question: Which “Binding of Control Serum Blood-Bank to Looped peptides” value [1] does the source give for IHTIDGSSGVANPAM here?
Answer: Its value is 0.4.

Question: What about the “Binding of Control serum Blood-bank to linear peptides” value [1] of the same sequence?
Answer: Its value is 0.7.

Question: And the “Binding of Control serum LUMC to linear peptides” value [1]?
Answer: Its value is 0.8.

Question: What about the “Binding of Control serum LUMC to looped peptides” value [1] of the same sequence?
Answer: Its value is 0.4.

Question: What about the “Binding of serum 1a to linear peptides of protein X1 of SARS-CoV Urbani” value [2] of the same sequence?
Answer: Its value is 0.7.

Question: What about the “Binding of serum 1a to looped/cyclic peptides of protein X1 of SARS-CoV Urbani” value [2] of the same sequence?
Answer: Its value is 0.5.

Question: And the “Binding of serum 1b to linear peptides of protein X1 of SARS-CoV Urbani” value [2]?
Answer: The value was 0.7.

Question: And the “Binding of serum 1b to looped/cyclic peptides of protein X1 of SARS-CoV Urbani” value [2]?
Answer: Its value is 0.4.

Question: And the “Binding of serum 2 to linear peptides of protein X1 of SARS-CoV Urbani” value [2]?
Answer: Its value is 0.8.

Question: What about the “Binding of serum 2 to looped/cyclic peptides of protein X1 of SARS-CoV Urbani” value [2] of the same sequence?
Answer: The value was 0.3.

Question: And the “Binding of serum 6 to linear peptides of protein X1 of SARS-CoV Urbani” value [2]?
Answer: Its value is 0.5.

Question: And the “Binding of serum 6 to looped/cyclic peptides of protein X1 of SARS-CoV Urbani” value [2]?
Answer: The value was 0.2.

Question: What about the “Binding of serum 37 to linear peptides of protein X1 of SARS-CoV Urbani” value [2] of the same sequence?
Answer: Its value is 0.7.

Question: And the “Binding of serum 37 to looped/cyclic peptides of protein X1 of SARS-CoV Urbani” value [2]?
Answer: The value was 0.3.

Question: What about the “Binding of serum 62 to linear peptides of protein X1 of SARS-CoV Urbani” value [2] of the same sequence?
Answer: Its value is 0.8.

Question: What about the “Binding of serum 62 to looped/cyclic peptides of protein X1 of SARS-CoV Urbani” value [2] of the same sequence?
Answer: Its value is 0.3.

Question: What about the “Binding of serum London to linear peptides of protein X1 of SARS-CoV Urbani” value [2] of the same sequence?
Answer: The value was 0.5.

Question: What about the “Binding of serum London to looped/cyclic peptides of protein X1 of SARS-CoV Urbani” value [2] of the same sequence?
Answer: The value was 0.2.

Question: And the “Binding of serum SARS-green to linear peptides of protein X1 of SARS-CoV Urbani” value [2]?
Answer: Its value is 0.5.

Question: And the “Binding of serum SARS-green to looped/cyclic peptides of protein X1 of SARS-CoV Urbani” value [2]?
Answer: Its value is 0.3.

Question: What about the “Binding of serum SARS-yellow to linear peptides of protein X1 of SARS-CoV Urbani” value [2] of the same sequence?
Answer: Its value is 0.6.

Question: What about the “Binding of serum SARS-yellow to looped/cyclic peptides of protein X1 of SARS-CoV Urbani” value [2] of the same sequence?
Answer: Its value is 0.2.

Question: And the “Binding of a rabbit serum to linear peptides” value [3]?
Answer: The value was 0.1.

Question: And the “Binding of a rabbit serum to looped peptides” value [3]?
Answer: The value was 0.5.

Question: For IIKLVFLWLLWPVTL, which “Binding of Control Serum Blood-Bank to Looped peptides of the protein M of SARS-CoV Urbani” value [1] is on record?
Answer: The value was 0.7.

Question: What about the “Binding of Control serum Blood-bank to linear peptides of the protein M of SARS-CoV Urbani” value [1] of the same sequence?
Answer: Its value is 0.5.

Question: And the “Binding of Control serum LUMC to linear peptides of the protein M of SARS-CoV Urbani” value [1]?
Answer: The value was 0.6.

Question: What about the “Binding of Control serum LUMC to looped peptides of the protein M of SARS-CoV Urbani” value [1] of the same sequence?
Answer: Its value is 0.6.

Question: And the “Binding of serum 1a to linear peptides of protein M of SARS-CoV Urbani” value [2]?
Answer: The value was 0.7.

Question: And the “Binding of serum 1a to looped/cyclic peptides of protein M of SARS-CoV Urbani” value [2]?
Answer: Its value is 0.6.

Question: And the “Binding of serum 1b to linear peptides of protein M of SARS-CoV Urbani” value [2]?
Answer: Its value is 0.5.

Question: What about the “Binding of serum 1b to looped/cyclic peptides of protein M of SARS-CoV Urbani” value [2] of the same sequence?
Answer: Its value is 0.7.

Question: What about the “Binding of serum 2 to linear peptides of protein M of SARS-CoV Urbani” value [2] of the same sequence?
Answer: The value was 0.4.

Question: What about the “Binding of serum 2 to looped/cyclic peptides of protein M of SARS-CoV Urbani” value [2] of the same sequence?
Answer: The value was 0.5.

Question: What about the “Binding of serum 6 to linear peptides of protein M of SARS-CoV Urbani” value [2] of the same sequence?
Answer: Its value is 0.4.

Question: What about the “Binding of serum 6 to looped/cyclic peptides of protein M of SARS-CoV Urbani” value [2] of the same sequence?
Answer: The value was 0.5.

Question: And the “Binding of serum 37 to linear peptides of protein M of SARS-CoV Urbani” value [2]?
Answer: The value was 0.3.

Question: And the “Binding of serum 37 to looped/cyclic peptides of protein M of SARS-CoV Urbani” value [2]?
Answer: The value was 0.5.

Question: And the “Binding of serum 62 to linear peptides of protein M of SARS-CoV Urbani” value [2]?
Answer: The value was 0.3.

Question: What about the “Binding of serum 62 to looped/cyclic peptides of protein M of SARS-CoV Urbani” value [2] of the same sequence?
Answer: The value was 0.6.

Question: What about the “Binding of serum London to linear peptides of protein M of SARS-CoV Urbani” value [2] of the same sequence?
Answer: Its value is 0.3.

Question: And the “Binding of serum London to looped/cyclic peptides of protein M of SARS-CoV Urbani” value [2]?
Answer: The value was 0.2.

Question: And the “Binding of serum SARS-green to linear peptides of protein M of SARS-CoV Urbani” value [2]?
Answer: The value was 0.4.

Question: What about the “Binding of serum SARS-green to looped/cyclic peptides of protein M of SARS-CoV Urbani” value [2] of the same sequence?
Answer: The value was 0.3.

Question: What about the “Binding of serum SARS-yellow to linear peptides of protein M of SARS-CoV Urbani” value [2] of the same sequence?
Answer: The value was 0.2.

Question: What about the “Binding of serum SARS-yellow to looped/cyclic peptides of protein M of SARS-CoV Urbani” value [2] of the same sequence?
Answer: The value was 0.4.

Question: And the “Rabbit serum linear peptides” value [3]?
Answer: The value was 0.1.

Question: And the “Rabbit serum looped peptides” value [3]?
Answer: Its value is 0.0.
